Patent US20190002436A1, “RESPIRATORY SYNCYTIAL VIRUS INHIBITORS” (MEDIVIR AB, priority 2015, published 2019)

The compounds below were run on RSV (Long) (assay: RSV cytopathic effect (CPE)-based viral replication assay). Conditions: HEp-2 cells infected with RSV Long at MOI 0.015; 3 days at 37° C.; cell viability by CellTiter-Glo luminescence; read-out: EC50 (nm).
Type: cell-based, respiratory syncytial virus (RSV)
How it was run: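 HEp-2 cells, 2,500 per well in DMEM with 2% heat-inactivated FBS, treated with 10-point compound dilutions and infected with RSV Long at MOI 0.015. After 3 days at 37 °C, 5% CO2, viability read by CellTiter-Glo luminescence; EC50 derived from CPE data.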
With `O=C1CC(c2c(Cn3c(=O)n(C4CC4)c4ccncc43)ncc3ccccc23)CN1` (stereo not shown) [Example 112c, 1-cyclopropyl-3-((4-(5-oxopyrrolidin-3-yl)isoquinolin-3-yl)methyl)-1H-imidazo[4,5-c]pyridin-2(3H)-one] the EC50 was 12 nM.
`O=C1CC(c2c(Cn3c(=O)n(C4CC4)c4ccncc43)ncc3ccccc23)CN1` (stereo not shown) [Example 2020] gave an EC50 of 80 nM.

Same assay, conditions: human respiratory syncytial virus, HEp-2, 72 h, HEp-2 cells infected with RSV Long at MOI 0.015; 3 days at 37° C.; cell viability by CellTiter-Glo luminescence; read-out: EC50 (nm)
`CNC1(C(=O)N2CCC3(CC2)C(=O)N(Cc2ncc4ccccc4c2-c2ccc(C(N)=O)nc2)c2cnccc23)CC1` [Example 108b, 5-(3-((1-(1-(Methylamino)cyclopropanecarbonyl)-2′-oxospiro[piperidine-4,3′-pyrrolo[2,3-c]pyridin]-1′(2′H)-yl)methyl)isoquinolin-4-yl)picolinamide] gave an EC50 of 1.2 nM.
With `CS(=O)(=O)N1CC2(C1)C(=O)N(Cc1ncc3ccccc3c1CCCCO)c1ccccc12` [Example 42, 1′-((4-(4-Hydroxybutyl)isoquinolin-3-yl)methyl)-1-(methylsulfonyl)spiro[azetidine-3,3′-indolin]-2′-one] the EC50 was 4.6 nM.
In the case of `COC(=O)c1ccc(-c2c(CN3C(=O)C4(CCN(C(=O)C5(N)CC5)CC4)c4ccncc43)ncc3ccccc23)cn1` [Example 50c, Methyl 5-(3-((1-(1-aminocyclopropanecarbonyl)-2′-oxospiro[piperidine-4,3′-pyrrolo[2,3-c]pyridin]-1′(2′H)-yl)methyl)isoquinolin-4-yl)picolinate], the EC50 is reported as 17 nM.
Compound `COC(=O)C1CC2(C1)C(=O)N(Cc1ncc3ccccc3c1-c1ccc(C3(N)CC3)nc1)c1cnccc12` (stereo not shown) [Example 2002] has an EC50 of 5.4 nM.
`O=c1n(Cc2ncc3ccccc3c2CCCCO)c2cnccc2n1C1CN(S(=O)(=O)C2CC2)C1` [Example 34, 1-(1-(cyclopropylsulfonyl)azetidin-3-yl)-3-((4-(4-hydroxybutyl)isoquinolin-3-yl)methyl)-1H-imidazo[4,5-c]pyridin-2(3H)-one] was tested, and the EC50 was 33 nM.
In the case of `O=c1n(Cc2ncc3ccccc3c2COCC(F)(F)F)c2cnccc2n1C1CC1` [Example 127, 1-Cyclopropyl-3-((4-((2,2,2-trifluoroethoxy)methyl)isoquinolin-3-yl)methyl)-1H-imidazo[4,5-c]pyridin-2(3H)-one], the EC50 is reported as 690 nM.
`COC(=O)N1CC2(C1)C(=O)N(Cc1ncc3ccccc3c1-c1ccc(N)nc1)c1ccccc12` [Example 104, methyl 1′-((4-(6-aminopyridin-3-yl)isoquinolin-3-yl)methyl)-2′-oxospiro[azetidine-3,3′-indoline]-1-carboxylate] was tested, and the EC50 was 1.5 nM.
Work on `N#Cc1ccc(-c2c(CN3C(=O)C4(CCN(C(=O)OCCO)CC4)c4ccncc43)ncc3ccccc23)cn1` [Example 68, 2-hydroxyethyl 1′-((4-(6-cyanopyridin-3-yl)isoquinolin-3-yl)methyl)-2′-oxo-1′,2′-dihydrospiro[piperidine-4,3′-pyrrolo[2,3-c]pyridine]-1-carboxylate] yielded an EC50 of 2.5 nM.
`COC(=O)N1CCC2(CC1)C(=O)N(Cc1ncc3ccccc3c1CCCCO)c1cnccc12` [Example 21b, Methyl 1′-((4-(4-hydroxybutyl)isoquinolin-3-yl)methyl)-2′-oxo-1′,2′-dihydrospiro[piperidine-4,3′-pyrrolo[2,3-c]pyridine]-1-carboxylate] showed an EC50 of 6.4 nM.
For `CS(=O)(=O)N1CCC(n2c(=O)n(Cc3ncc4ccccc4c3CCCCO)c3cnccc32)CC1` [Example 18c, 3-((4-(4-hydroxybutyl)isoquinolin-3-yl)methyl)-1-(1-(methylsulfonyl)piperidin-4-yl)-1H-imidazo[4,5-c]pyridin-2(3H)-one], the EC50 was 3.4 nM.
Work on `COC(=O)N1CC2(C1)C(=O)N(Cc1ncc3cc(Cl)ccc3c1-c1cccnc1)c1cnccc12` [Example 161c, methyl 1′-((7-chloro-4-(pyridin-3-yl)isoquinolin-3-yl)methyl)-2′-oxo-1′,2′-dihydrospiro[azetidine-3,3′-pyrrolo[2,3-c]pyridine]-1-carboxylate] yielded an EC50 of 2.9 nM.
For `CC1(OC(=O)N2CC3(C2)C(=O)N(Cc2ncc4ccccc4c2-c2ccc(C#N)nc2)c2ccccc23)CC1` [Example 91b, 1-Methylcyclopropyl 1′-((4-(6-cyanopyridin-3-yl)isoquinolin-3-yl)methyl)-2′-oxospiro[azetidine-3,3′-indoline]-1-carboxylate], the EC50 was 0.4 nM.
In the case of `O=c1n(Cc2ncc3ccccc3c2-c2ccc(O)nc2)c2ccccc2n1C1CC1` [Example 88, 1-Cyclopropyl-3-((4-(6-hydroxypyridin-3-yl)isoquinolin-3-yl)methyl)-1H-benzo[d]imidazol-2(3H)-one], the EC50 is reported as 8.5 nM.
Work on `CS(=O)(=O)N1CCC2(CC1)C(=O)N(Cc1ncc3ccccc3c1-c1cncs1)c1cnccc12` [Example 98c] yielded an EC50 of 1.9 nM.
Work on `O=c1n(Cc2ncc3c(F)cccc3c2CCCCO)c2cnccc2n1C1CC1` [Example 29, 1-Cyclopropyl-3-((8-fluoro-4-(4-hydroxybutyl)isoquinolin-3-yl)methyl)-1H-imidazo[4,5-c]pyridin-2(3H)-one] yielded an EC50 of 160 nM.
`NC1(C(=O)N2CC3(C2)C(=O)N(Cc2ncc4ccccc4c2-c2ccc(S(N)(=O)=O)nc2)c2ccccc23)CC1` [Example 124, 5-(3-((1-(1-Aminocyclopropanecarbonyl)-2′-oxospiro[azetidine-3,3′-indolin]-1′-yl)methyl)isoquinolin-4-yl)pyridine-2-sulfonamide] gave an EC50 of 9.8 nM.
`COC(=O)N1CC2(C1)C(=O)N(Cc1ncc3ccccc3c1-c1cncs1)c1ccccc12` [Example 100, Methyl 2′-oxo-1′-((4-(thiazol-5-yl)isoquinolin-3-yl)methyl)spiro[azetidine-3,3′-indoline]-1-carboxylate] showed an EC50 of 0.4 nM.
`NC1(C(=O)N2CCC3(CC2)C(=O)N(Cc2ncc4ccccc4c2-c2ccc(S(N)(=O)=O)cc2)c2cnccc23)CC1` [Example 2015] showed an EC50 of 3.9 nM.
With `CNC(=O)N1CC2(C1)C(=O)N(Cc1ncc3ccccc3c1CCCCO)c1ccccc12` [Example 38, 1′-((4-(4-hydroxybutyl)isoquinolin-3-yl)methyl)-N-methyl-2′-oxospiro[azetidine-3,3′-indoline]-1-carboxamide] the EC50 was 6.4 nM.
`COC(=O)N1CCC(n2c(=O)n(Cc3ncc4cc(F)ccc4c3CCCCO)c3cnccc32)CC1` [Example 7b, Methyl 4-(3-((7-fluoro-4-(4-hydroxybutyl)isoquinolin-3-yl)methyl)-2-oxo-2,3-dihydro-1H-imidazo[4,5-c]pyridin-1-yl)piperidine-1-carboxylate] gave an EC50 of 11 nM.
Work on `O=C1N(Cc2ncc3ccccc3c2CCCCO)c2cnccc2C12CC2` [Example 49, 1′-((4-(4-hydroxybutyl)isoquinolin-3-yl)methyl)spiro[cyclopropane-1,3′-pyrrolo[2,3-c]pyridin]-2′(1′H)-one] yielded an EC50 of 18 nM.
`COC(=O)N1CCC(n2c(=O)n(Cc3ncc4ccccc4c3CCCCO)c3cnccc32)CC1` [Example 2d, Methyl 4-(3-((4-(4-hydroxybutyl)isoquinolin-3-yl)methyl)-2-oxo-2,3-dihydro-1H-imidazo[4,5-c]pyridin-1-yl)piperidine-1-carboxylate] gave an EC50 of 2 nM.
With `CS(=O)(=O)Nc1ccc(-c2c(CN3C(=O)C4(CN(C(=O)C5(N)CC5)C4)c4ccccc43)ncc3ccccc23)cc1` [Example 114c, N-(4-(3-((1-(1-aminocyclopropanecarbonyl)-2′-oxospiro[azetidine-3,3′-indolin]-1′-yl)methyl)isoquinolin-4-yl)phenyl)methanesulfonamide] the EC50 was 5.5 nM.
Compound `COC(=O)N1CC2(C1)C(=O)N(Cc1ncc3ccccc3c1-c1ccc(NS(C)(=O)=O)cc1)c1ccccc12` [Example 105, methyl 1′-((4-(4-(methylsulfonamido)phenyl)isoquinolin-3-yl)methyl)-2′-oxospiro[azetidine-3,3′-indoline]-1-carboxylate] has an EC50 of 0.85 nM.
For `CS(=O)(=O)N1CCC2(CC1)C(=O)N(Cc1ncc3ccccc3c1-c1ccc(C3(N)COC3)nc1)c1cnccc12` [Example 2038], the EC50 was 11 nM.
With `NC1(C(=O)N2CCC3(CC2)C(=O)N(Cc2ncc4ccccc4c2-c2cncc(F)c2)c2cnccc23)CC1` [Example 106c, 1-(1-aminocyclopropanecarbonyl)-1′-((4-(5-fluoropyridin-3-yl)isoquinolin-3-yl)methyl)spiro[piperidine-4,3′-pyrrolo[2,3-c]pyridin]-2′(1′H)-one] the EC50 was 3.7 nM.
For `COC(=O)N1CC2(C1)C(=O)N(Cc1ncc3ccccc3c1-c1cccnc1)c1ccccc12` [Example 92b, Methyl 2′-oxo-1′-((4-(pyridin-3-yl)isoquinolin-3-yl)methyl)spiro[azetidine-3,3′-indoline]-1-carboxylate], the EC50 was 0.67 nM.
`O=C(C1CCNCC1)N1CC2(C1)C(=O)N(Cc1ncc3ccccc3c1-c1cccnc1)c1ccccc12` [Example 149b, 1-(Piperidine-4-carbonyl)-1′-((4-(pyridin-3-yl)isoquinolin-3-yl)methyl)spiro[azetidine-3,3′-indolin]-2′-one] gave an EC50 of 6 nM.
`NCCC(=O)N1CC2(C1)C(=O)N(Cc1ncc3ccccc3c1-c1cccnc1)c1ccccc12` [Example 150, 1-(3-Aminopropanoyl)-1′-((4-(pyridin-3-yl)isoquinolin-3-yl)methyl)spiro[azetidine-3,3′-indolin]-2′-one] showed an EC50 of 6.6 nM.
`NC(=O)c1ccc(-c2c(CN3C(=O)C4(CCN(C(=O)[C@@H]5CC(F)(F)CN5)CC4)c4ccncc43)ncc3ccccc23)cn1` [Example 2011] showed an EC50 of 21 nM.
`COC(=O)N1CC2(C1)C(=O)N(Cc1ncc3ccccc3c1-c1ccncc1)c1ccccc12` [Example 97, Methyl 2′-oxo-1′-((4-(pyridin-4-yl)isoquinolin-3-yl)methyl)spiro[azetidine-3,3′-indoline]-1-carboxylate] showed an EC50 of 0.45 nM.
`COC(=O)N1CC2(C1)C(=O)N(Cc1ncc3ccccc3c1-c1cnccn1)c1ccccc12` [Example 103, Methyl 2′-oxo-1′-((4-(pyrazin-2-yl)isoquinolin-3-yl)methyl)spiro[azetidine-3,3′-indoline]-1-carboxylate] showed an EC50 of 18 nM.
